Data: ChEMBL document CHEMBL4049433, “Prediction of Antibiotic Interactions Using Descriptors Derived from Molecular Structure” (2017)
Converted amounts (≈) assume the structure as drawn.

Test system: Escherichia coli
Experiment: Antibacterial activity against Escherichia coli MG1655 measured every 15 mins for 12 hrs
Type: functional
Conditions: K-12 substr. MG1655

First: COc1cc(Cc2cnc(N)nc2N)cc(OC)c1OC [TRIMETHOPRIM]
Second: CC[C@H]1OC(=O)[C@H](C)[C@@H](O[C@H]2C[C@@](C)(OC)[C@@H](O)[C@H](C)O2)[C@H](C)[C@@H](O[C@@H]2O[C@H](C)C[C@H](N(C)C)[C@H]2O)[C@](C)(O)C[C@@H](C)C(=O)[C@H](C)[C@@H](O)[C@]1(C)O [ERYTHROMYCIN]
The MIC of the first is 37-fold lower: 0.35 µg/mL (≈ 1.21 µM) for the first, 13 µg/mL (≈ 17.7 µM) for the second.

Compared with NC[C@H]1O[C@H](O[C@H]2[C@H](O)[C@@H](O[C@H]3O[C@H](CO)[C@@H](O)[C@H](N)[C@H]3O)[C@H](N)C[C@@H]2N)[C@H](N)C[C@@H]1O [TOBRAMYCIN], CC(=O)O[C@H]1C[C@@]2(C)[C@@H](C[C@@H](O)[C@H]3[C@@]4(C)CC[C@@H](O)[C@@H](C)[C@@H]4CC[C@@]32C)/C1=C(\CCC=C(C)C)C(=O)O [FUSIDIC ACID] is 320-fold higher in MIC: 2.5 µg/mL (≈ 5.35 µM) for the first, 800 µg/mL (≈ 1550 µM) for the second.

Going from NCC[C@H](O)C(=O)N[C@@H]1C[C@H](N)[C@@H](O[C@H]2O[C@H](CN)[C@@H](O)[C@H](O)[C@H]2O)[C@H](O)[C@H]1O[C@H]1O[C@H](CO)[C@@H](O)[C@H](N)[C@H]1O [AMIKACIN] to CN(C)[C@@H]1C(O)=C(C(N)=O)C(=O)[C@@]2(O)C(O)=C3C(=O)c4c(O)cccc4[C@@](C)(O)[C@H]3C[C@@H]12 [TETRACYCLINE], the MIC rises from 4 µg/mL (≈ 6.83 µM) to 18 µg/mL (≈ 40.5 µM) (4.5-fold).

Compared with CO[C@H]1/C=C/O[C@@]2(C)Oc3c(C)c(O)c4c(O)c(c(/C=N/N5CCN(C)CC5)c(O)c4c3C2=O)NC(=O)/C(C)=C\C=C\[C@H](C)[C@H](O)[C@@H](C)[C@@H](O)[C@@H](C)[C@H](OC(C)=O)[C@@H]1C [RIFAMPIN], CCn1cc(C(=O)O)c(=O)c2ccc(C)nc21 [NALIDIXIC ACID] is 2-fold higher in MIC: 2.5 µg/mL (≈ 3.04 µM) for the first, 5 µg/mL (≈ 21.5 µM) for the second.

Compared with NC[C@H]1O[C@H](O[C@H]2[C@H](O)[C@@H](O[C@H]3O[C@H](CO)[C@@H](O)[C@H](N)[C@H]3O)[C@H](N)C[C@@H]2N)[C@H](O)[C@@H](O)[C@@H]1O [KANAMYCIN], O=c1[nH]cc(F)c(=O)[nH]1 [FLUOROURACIL] is 1.8-fold higher in MIC: 14 µg/mL (≈ 28.9 µM) for the first, 25 µg/mL (≈ 192 µM) for the second.

Going from O=C1CN(/N=C/c2ccc([N+](=O)[O-])o2)C(=O)N1 [NITROFURANTOIN] to CO[C@@]1(NC(=O)Cc2cccs2)C(=O)N2C(C(=O)O)=C(COC(N)=O)CS[C@@H]21 [CEFOXITIN], the MIC falls from 12 µg/mL (≈ 50.4 µM) to 4.5 µg/mL (≈ 10.5 µM) (2.7-fold).

Going from CN[C@@H]1[C@H](O)[C@H](NC)[C@H]2O[C@@]3(O)C(=O)C[C@@H](C)O[C@H]3O[C@@H]2[C@H]1O [SPECTINOMYCIN] to GENTAMICIN, the MIC falls from 5.6 µg/mL (≈ 16.8 µM) to 3 µg/mL (1.9-fold).

Compared with O=C(N[C@H](CO)[C@H](O)c1ccc([N+](=O)[O-])cc1)C(Cl)Cl [CHLORAMPHENICOL], CC[C@H]1OC(=O)[C@H](C)[C@@H](O[C@H]2C[C@@](C)(OC)[C@@H](O)[C@H](C)O2)[C@H](C)[C@@H](O[C@@H]2O[C@H](C)C[C@H](N(C)C)[C@H]2O)[C@](C)(OC)C[C@@H](C)C(=O)[C@H](C)[C@@H](O)[C@]1(C)O [CLARITHROMYCIN] is 4.4-fold higher in MIC: 5 µg/mL (≈ 15.5 µM) for the first, 22 µg/mL (≈ 29.4 µM) for the second.

First: CC1(C)S[C@@H]2[C@H](NC(=O)Cc3ccccc3)C(=O)N2[C@H]1C(=O)O [PENICILLIN G]
Second: N=C(N)c1ccc(OCCCCCOc2ccc(C(=N)N)cc2)cc1 [PENTAMIDINE]
The MIC of the first is 5-fold lower: 20 µg/mL (≈ 59.8 µM) for the first, 100 µg/mL (≈ 294 µM) for the second.

Going from CN[C@H](CC(C)C)C(=O)N[C@H]1C(=O)N[C@@H](CC(N)=O)C(=O)N[C@H]2C(=O)N[C@H]3C(=O)N[C@H](C(=O)N[C@H](C(=O)O)c4cc(O)cc(O)c4-c4cc3ccc4O)[C@H](O)c3ccc(c(Cl)c3)Oc3cc2cc(c3O[C@@H]2O[C@H](CO)[C@@H](O)[C@H](O)[C@H]2O[C@H]2C[C@](C)(N)[C@H](O)[C@H](C)O2)Oc2ccc(cc2Cl)[C@H]1O [VANCOMYCIN] to C/C(=C\C(=O)OCCCCCCCCC(=O)O)C[C@@H]1OC[C@H](C[C@@H]2O[C@H]2[C@@H](C)[C@H](C)O)[C@@H](O)[C@H]1O [MUPIROCIN], the MIC falls from 180 µg/mL (≈ 124 µM) to 66 µg/mL (≈ 132 µM) (2.7-fold).

First: CC[C@H]1OC(=O)[C@H](C)[C@@H](O[C@H]2C[C@@](C)(OC)[C@@H](O)[C@H](C)O2)[C@H](C)[C@@H](O[C@@H]2O[C@H](C)C[C@H](N(C)C)[C@H]2O)[C@](C)(O)C[C@@H](C)/C(=N\OCOCCOC)[C@H](C)[C@@H](O)[C@]1(C)O [ROXITHROMYCIN]
Second: Cc1onc(-c2ccccc2)c1C(=O)N[C@@H]1C(=O)N2[C@@H]1SC(C)(C)[C@@H]2C(=O)O [OXACILLIN]
The MIC of the first is 3.1-fold lower: 62 µg/mL (≈ 74.1 µM) for the first, 190 µg/mL (≈ 473 µM) for the second.
